Data on three compounds can be found in patent US20230265151A1, “GIP/GLP1 CO-AGONIST COMPOUNDS” (priority 2020, published 2023).

Like-named read-outs stand apart in the source and are kept apart here.

Assay [1] addresses hGLP-1R (Homo sapiens, UniProt P43220). Description: Functional cAMP formation (HTRF) in HEK-293 clonal cells expressing hGLP-1R, 0.1% bovine casein, without or with 1.0% human serum albumin. It counts as cell-based. The following applies: for EC50: geometric mean. The arrangement: expressed in transfected cells. In outline:
(§1)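 Readings of the HTRF 665/620 nm ratio, which falls as cAMP rises, were converted to nM cAMP using a standard curve after 30 min peptide exposure at 37° C.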

Assay [2] addresses T1, human GLP-1 receptor (hGLP-1R) (Homo sapiens, UniProt P43220).
T1 construct: expressed in transfected cells; crude membranes
Nature of the assay: [125I]-GLP-1 binding, SPA with membranes of HEK293 cells expressing hGLP-1R. The method, then:
Two methods are used for the preparation of crude cell membranes.
Method 1: Frozen cell pellets are lysed on ice in hypotonic buffer containing 50 mM Tris HCl, pH 7.5, and Roche Complete™ Protease Inhibitors with EDTA. […] The homogenate is centrifuged at 4° C. at 1100 × g for 10 minutes. The supernatant is collected and stored on ice while the pellets are resuspended in homogenization buffer and rehomogenized as described above. The homogenate is centrifuged at 1100 × g for 10 minutes. The second supernatant is combined with the first supernatant and centrifuged at 35000 × g for 1 hour at 4° C. The resulting membrane pellet is resuspended in homogenization buffer containing protease inhibitors at approximately 1 to 3 mg/mL, quick frozen in liquid nitrogen and stored as aliquots in a -80° C. freezer until use.
The homogenate is centrifuged at 4° C. at 1800 × g for 15 minutes. The supernatant is collected and stored on ice while the pellets are resuspended in homogenization buffer (without DNAse I) and rehomogenized as described above. The homogenate is centrifuged at 1800 × g for 15 minutes. The second supernatant is combined with the first supernatant and centrifuged an additional time at 1800 × g for 15 minutes. The overall supernatant is then centrifuged at 25000 × g for 30 minutes at 4° C. The resulting membrane pellet is resuspended in homogenization buffer (without DNAse I) containing protease inhibitors at approximately 1 to 3 mg/mL and stored as aliquots in a -80° C. freezer until use.
The human GLP-1 receptor binding assay is performed using an SPA format with WGA beads. The binding buffer contains 25 mM HEPES, pH 7.4, 2.5 mM CaCl2, 1 mM MgCl2, 0.1% (w/v) bacitracin, 0.003% (w/v) TWEEN®-20, and Roche Complete™ Protease Inhibitors without EDTA.
Raw CPM data for concentration curves of peptides, Gcg, GLP-1, or GIP are converted to percent inhibition by subtracting nonspecific binding (binding in the presence of excess unlabeled Gcg, GLP-1, or GIP, respectively) from the individual CPM values and dividing by the total binding signal, also corrected by subtracting nonspecific binding. Data are analyzed using four-parameter (curve maximum, curve minimum, IC50, Hill slope) nonlinear regression routines (Genedata Screener, version 12.0.4, Genedata AG, Basal, Switzerland). […] Values for Ki are reported as the geometric mean, with error expressed as the standard error of the mean (SEM) and n is equal to the number of independent replicates (determined in assays performed on different days). Geometric Means are calculated as follows: […]
The Ki Ratio (Ki for native control peptide/Ki for test compound) at each receptor and each species is calculated. The Ki Ratio is a rapid indication of the apparent affinity of a peptide compared to the native control peptide.
n=⅟x means that only one value out of the total number of replicates (x) is used to express the mean. SEM is only calculated when n=2 or greater non-qualified results exist. Means are expressed as GeoMetric means with the standard error of the mean (SEM) and the number of replicates (n) indicated in parenthesis.

The target in assay [3] is T2, hGCGR (Homo sapiens, UniProt P47871).
T2 construct: expressed in transfected cells
Nature of the assay: Functional cAMP formation (HTRF) in HEK-293 clonal cells expressing hGCGR, 0.1% bovine casein, without or with 1.0% human serum albumin. It counts as cell-based. In outline:
as §1

The target in assay [4] is T3, hGIPR (Homo sapiens, UniProt P48546).
T3 construct: expressed in transfected cells
T3 sequence (P48546 22-466): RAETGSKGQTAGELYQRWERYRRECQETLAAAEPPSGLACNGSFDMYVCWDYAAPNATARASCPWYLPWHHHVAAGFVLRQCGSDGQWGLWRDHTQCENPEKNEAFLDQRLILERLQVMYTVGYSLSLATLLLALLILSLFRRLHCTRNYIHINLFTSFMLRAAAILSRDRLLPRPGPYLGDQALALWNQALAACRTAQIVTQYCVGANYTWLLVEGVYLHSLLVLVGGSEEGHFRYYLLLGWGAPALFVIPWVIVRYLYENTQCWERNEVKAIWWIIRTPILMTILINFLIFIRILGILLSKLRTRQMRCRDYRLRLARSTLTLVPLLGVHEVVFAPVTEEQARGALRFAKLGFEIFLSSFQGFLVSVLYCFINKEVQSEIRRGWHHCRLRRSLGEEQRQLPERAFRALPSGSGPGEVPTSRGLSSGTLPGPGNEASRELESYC
Description: Functional cAMP formation (HTRF) in HEK-293 clonal cells expressing hGIPR, 0.1% bovine casein, without or with 1.0% human serum albumin. It counts as cell-based. The following applies: for EC50: geometric mean. In outline: as §1

Where [5] appears, read: human GLP-1R, geometric mean (SEM, n), read-out: Binding Affinity Ki, nM (SEM, n) hGLP-1R.

T1 sequence (P43220 24-463): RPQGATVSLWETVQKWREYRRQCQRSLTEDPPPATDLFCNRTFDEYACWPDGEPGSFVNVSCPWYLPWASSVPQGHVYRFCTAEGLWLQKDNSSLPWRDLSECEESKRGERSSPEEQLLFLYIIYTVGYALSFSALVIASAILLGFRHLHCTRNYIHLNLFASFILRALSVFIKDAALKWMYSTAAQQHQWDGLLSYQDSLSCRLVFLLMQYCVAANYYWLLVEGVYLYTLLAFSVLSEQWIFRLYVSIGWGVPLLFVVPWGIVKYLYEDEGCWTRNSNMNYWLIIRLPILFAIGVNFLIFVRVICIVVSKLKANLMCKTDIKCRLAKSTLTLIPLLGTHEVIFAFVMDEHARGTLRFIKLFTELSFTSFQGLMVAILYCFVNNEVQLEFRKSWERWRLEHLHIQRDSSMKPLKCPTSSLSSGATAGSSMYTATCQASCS
hGLP-1R, sequence (P43220 24-463): as above
T2 sequence (P47871 26-477): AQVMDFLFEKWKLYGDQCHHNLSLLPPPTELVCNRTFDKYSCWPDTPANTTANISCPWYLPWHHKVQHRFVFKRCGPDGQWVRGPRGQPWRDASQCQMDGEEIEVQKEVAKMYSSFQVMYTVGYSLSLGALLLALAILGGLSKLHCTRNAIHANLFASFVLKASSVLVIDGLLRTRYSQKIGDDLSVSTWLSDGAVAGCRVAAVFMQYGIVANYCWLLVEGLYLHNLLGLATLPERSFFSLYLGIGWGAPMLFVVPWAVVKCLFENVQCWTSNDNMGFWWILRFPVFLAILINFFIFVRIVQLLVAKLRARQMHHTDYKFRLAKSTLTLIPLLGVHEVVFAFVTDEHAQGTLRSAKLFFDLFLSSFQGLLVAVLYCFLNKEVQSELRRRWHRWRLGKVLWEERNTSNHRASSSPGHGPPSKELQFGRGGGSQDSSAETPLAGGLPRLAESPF

On to `CC[C@H](C)[C@H](NC(=O)[C@H](CCCN)NC(=O)[C@H](CC(=O)O)NC(=O)[C@H](CC(C)C)NC(=O)[C@](C)(CC(C)C)NC(=O)[C@@H](NC(=O)C(C)(C)NC(=O)[C@H](Cc1ccncc1)NC(=O)[C@H](CC(=O)O)NC(=O)[C@H](CO)NC(=O)[C@@H](NC(=O)[C@](C)(Cc1ccccc1F)NC(=O)[C@@H](NC(=O)CNC(=O)[C@H](CCC(=O)O)NC(=O)C(C)(C)NC(=O)[C@@H](N)Cc1ccc(O)cc1)[C@@H](C)O)[C@@H](C)O)[C@@H](C)CC)C(=O)N[C@@H](C)C(=O)N[C@@H](CCC(N)=O)C(=O)NC(C)(C)C(=O)N[C@@H](CCC(=O)O)C(=O)N[C@@H](Cc1ccccc1)C(=O)N[C@H](C(=O)N[C@@H](CCCCNC(=O)COCCOCCNC(=O)COCCOCCNC(=O)CC[C@H](NC(=O)CCCCCCCCCOc1ccc(C(=O)O)cc1)C(=O)O)C(=O)N[C@@](C)(Cc1ccc(O)cc1)C(=O)N[C@@H](CC(C)C)C(=O)N[C@H](C(=O)N[C@@H](CCCCNC(=O)COCCOCCNC(=O)COCCOCCNC(=O)CC[C@H](NC(=O)CCCCCCCCCOc1ccc(C(=O)O)cc1)C(=O)O)C(=O)NCC(=O)NCC(=O)N1CCC[C@H]1C(=O)N[C@@H](CO)C(=O)N[C@@H](CO)C(=O)NCC(=O)N[C@@H](C)C(=O)N1CCC[C@H]1C(=O)N1CCC[C@H]1C(=O)N1CCC[C@H]1C(=O)N[C@@H](CO)C(N)=O)[C@@H](C)CC)[C@@H](C)CC` [Example 246], for which the EC50 was 0.441 nM in assay [1] (hGLP-1R EC50, nM (SEM, n), cAMP, incubated at 37° C., 0.1% bovine casein (no human serum albumin)); > 9950 nM in assay [3] (hGCGR EC50, nM (SEM, n), 0.1% bovine casein and 1.0% human serum albumin, 37° C., geometric mean); > 9950 nM in assay [3] (hGCGR EC50, nM (SEM, n), cAMP, incubated at 37° C., 0.1% bovine casein (no human serum albumin), geometric mean); 0.0223 nM in assay [4] (hGIPR EC50, nM (SEM, n), cAMP, incubated at 37° C., 0.1% bovine casein (no human serum albumin)). In assay [2], this compound registered a Ki of 0.557 nM. For the same compound, the Emax in assay [4] (HEK293, read-out: hGIPR Emax, % ± SEM, 0.1% bovine casein and 1.0% human serum albumin, 37° C., percent of maximal response to GIP(1-42)NH2) turned out to be 91%; in assay [4] (HEK293, read-out: hGIPR Emax, % ± SEM, percent of maximal response to GIP(1-42)NH2, 37° C., 0.1% bovine casein, arithmetic mean), 96.9%.
With `CCCCCCCCCCCCCCCC(=O)N[C@@H](CCC(=O)NCCOCCOCC(=O)NCCOCCOCC(=O)NCCCC[C@H](NC(=O)[C@H](CCCN)NC(=O)[C@H](CC(=O)O)NC(=O)[C@H](CC(C)C)NC(=O)[C@](C)(CC(C)C)NC(=O)[C@@H](NC(=O)[C@H](CO)NC(=O)[C@H](Cc1ccncc1)NC(=O)[C@H](CC(=O)O)NC(=O)[C@H](CO)NC(=O)[C@@H](NC(=O)[C@](C)(Cc1ccccc1F)NC(=O)[C@@H](NC(=O)CNC(=O)[C@H](CCC(=O)O)NC(=O)C(C)(C)NC(=O)[C@@H](N)Cc1ccc(O)cc1)[C@@H](C)O)[C@@H](C)O)[C@@H](C)CC)C(=O)N[C@@H](C)C(=O)N[C@@H](CCC(N)=O)C(=O)NC(C)(C)C(=O)N[C@@H](CCCCNC(=O)COCCOCCNC(=O)COCCOCCNC(=O)CC[C@H](NC(=O)CCCCCCCCCCCCCCC)C(=O)O)C(=O)N[C@@H](Cc1ccccc1)C(=O)N[C@H](C(=O)N[C@H](CCC(=O)O)C(=O)N[C@@](C)(Cc1ccc(O)cc1)C(=O)N[C@@H](CC(C)C)C(=O)N[C@H](C(=O)N[C@@H](CCC(=O)O)C(=O)NCC(=O)NCC(=O)N1CCC[C@H]1C(=O)N[C@@H](CO)C(=O)N[C@@H](CO)C(=O)NCC(=O)N[C@@H](C)C(=O)N1CCC[C@H]1C(=O)N1CCC[C@H]1C(=O)N1CCC[C@H]1C(=O)N[C@@H](CO)C(N)=O)[C@@H](C)CC)[C@@H](C)CC)C(=O)O` [Example 21], the EC50 in assay [1] (0.1% bovine casein and 1.0% human serum albumin, 37° C., read-out: hGLP-1R EC50, nM (SEM, n)) was 0.806 nM; in assay [3] (0.1% bovine casein and 1.0% human serum albumin, 37° C., geometric mean, read-out: hGCGR EC50, nM (SEM, n)), > 9950 nM; in assay [3] (cAMP, incubated at 37° C., 0.1% bovine casein (no human serum albumin), geometric mean, read-out: hGCGR EC50, nM (SEM, n)), > 9950 nM; in assay [4] (0.1% bovine casein and 1.0% human serum albumin, 37° C., read-out: hGIPR EC50, nM (SEM, n)) it was 0.302 nM. Also, the Ki in assay [2] (setting [5]) was 0.246 nM.
Turning to `CC[C@H](C)[C@H](NC(=O)[C@H](CC(C)C)NC(=O)[C@](C)(Cc1ccc(O)cc1)NC(=O)[C@H](CCCCNC(=O)CCOCCOCCOCCOCCNC(=O)CC[C@H](NC(=O)CCCCCCCCCCCCC(=O)O)C(=O)O)NC(=O)[C@@H](NC(=O)[C@H](Cc1ccccc1)NC(=O)[C@H](CCCN)NC(=O)C(C)(C)NC(=O)[C@H](CCC(N)=O)NC(=O)[C@H](C)NC(=O)[C@H](CCC(N)=O)NC(=O)[C@H](CCCN)NC(=O)[C@H](CC(=O)O)NC(=O)[C@H](CC(C)C)NC(=O)[C@](C)(CC(C)C)NC(=O)[C@@H](NC(=O)C(C)(C)NC(=O)[C@H](Cc1ccncc1)NC(=O)[C@H](CC(=O)O)NC(=O)[C@H](CO)NC(=O)[C@@H](NC(=O)[C@](C)(Cc1ccccc1F)NC(=O)[C@@H](NC(=O)CNC(=O)[C@H](CCC(=O)O)NC(=O)C(C)(C)NC(=O)[C@@H](N)Cc1ccc(O)cc1)[C@@H](C)O)[C@@H](C)O)[C@@H](C)CC)[C@@H](C)CC)C(=O)N[C@@H](CCCCNC(=O)CCOCCOCCOCCOCCNC(=O)CC[C@H](NC(=O)CCCCCCCCCCCCC(=O)O)C(=O)O)C(=O)NCC(=O)NCC(=O)N1CCC[C@H]1C(=O)N[C@@H](CO)C(=O)N[C@@H](CO)C(=O)NCC(=O)N[C@@H](C)C(=O)N1CCC[C@H]1C(=O)N1CCC[C@H]1C(=O)N1CCC[C@H]1C(=O)N[C@@H](CO)C(N)=O` [Example 457], in assay [1] (HEK293, cAMP, 37° C., 0.1% bovine casein, percent of maximal response to GLP-1(7-36)NH2, arithmetic mean, read-out: hGLP-1R Emax, % ± SEM), the Emax came out at 119%. Further, the EC50 in assay [1] (cAMP, 37° C., 0.1% bovine casein (no human serum albumin), read-out: hGLP-1R EC50, nM (SEM, n)) is 0.185 nM; in assay [3] (cAMP, 37° C., 0.1% bovine casein (no human serum albumin), geometric mean, read-out: hGCGR EC50, nM (SEM, n)) it was > 9950 nM; in assay [3] (cAMP, 37° C., 0.1% bovine casein and 1.0% human serum albumin, geometric mean (SEM, n), read-out: hGCGR EC50, nM (SEM, n)) it was > 9950 nM; in assay [4] (cAMP, 37° C., 0.1% bovine casein (no human serum albumin), read-out: hGIPR EC50, nM (SEM, n)), 0.0106 nM. For the same compound, in assay [2] (setting [5]), the Ki came to 0.252 nM.
